Values of other authors, collected in patent US12226530B2, “Lenalidomide gastro-retentive sustained-release tablet and preparation method thereof” (DiQi Pharmaceuticals Co., Ltd., priority 2018, dated 2025).
Like-named read-outs stand apart in the source and are kept apart here.

Assays:
[1] = not given; remark: listed apart in the source

In the case of `Nc1cccc2c1CN(C1CCC(=O)NC1=O)C2=O` (centres unmarked) [lenalidomide], the Solubility (hydrochloric acid buffer with a pH of 1.2) is given as “about 18 mg/ml”, the Solubility (pH of solution medium greater than 4.6) is given as “lower than 0.6 mg/ml” and the Change of concentration ([1]; solvent pH 1.2, 6 hours) is given as “unchanged”. For the same molecule, the Decrease of concentration ([1]; solvent pH 4.5, 6 hours) was 6% and the Decrease of concentration ([1]; solvent pH 6.8, 6 hours) was 16%.
